Assay: Room temperature solubility in methanol
Type: physicochemical
Details: room temperature (20° C. to 30° C.)

CCC(=O)O[C@]1(C(=O)SCF)[C@H](C)C[C@H]2[C@@H]3C[C@H](F)C4=CC(=O)C=C[C@]4(C)[C@@]3(F)[C@@H](O)C[C@@]21C [Active Agent 1, S-(fluoromethyl) 6α,9-difluoro-11β,17-dihydroxy-16α-methyl-3-oxoandrosta-1,4-diene-17β-carbothioate, 17-propionate]
solubility in methanol: 0.3 wt %

Source: patent publication US10675602B2, “Spray-drying process” (Bend Research, Inc., priority 2009, dated 2020)
